For test [1], the system named is isolated rat atrium. Nature of the test: antiarrhythmic effect, isolated rat atrium method of M. Libonati and G. Segre. Particulars: Rattus norvegicus.
Test [2] relates to female rats. Put plainly: antifatigue effect: rota-rod. The test is classed as in vivo, rat. To be noted: Rattus norvegicus, ip, 0.25 h; for responders at 0.25 mg/kg: read-out: percentage of animals staying on the rota-rod more than 180 seconds, 0.25 mg/kg i.p.; for responders at 0.5 mg/kg: read-out: percentage of animals staying on the rota-rod more than 180 seconds, 0.50 mg/kg i.p.; for responders at 1 mg/kg: read-out: percentage of animals staying on the rota-rod more than 180 seconds, 1.00 mg/kg i.p.; for responders at 300 mg/kg: read-out: percentage of animals staying on the rota-rod more than 180 seconds, 300 mg/kg i.p.; for responders at 400 mg/kg: read-out: percentage of animals staying on the rota-rod more than 180 seconds, 400 mg/kg i.p.; for responders at 600 mg/kg: read-out: percentage of animals staying on the rota-rod more than 180 seconds, 600 mg/kg i.p. How it is done: The antifatigue effect was also examined with the following results. The antifatigue effect was investigated by administering the compounds of the formula (I) according to the present application to female rats intraperitoneally in saline solution and saline solution alone to the controls by the same route. Every 15 minutes (sessions) after treatment, the animals were placed on a 6 cm diameter rod, rotating at 16 r.p.m. The percentage of the animals capable of staying on the rota-rod for a duration of more than 180 seconds was then recorded.
Background: In the rotarod test animals must keep their balance on a rotating rod.

The subject of test [3] is isolated rabbit hearts. Put plainly: coronary vasodilator effect: coronary flow, isolated heart (Langendorff). Here is the method:
(§1) The cardiokinetic effect on isolated heart was also investigated as follows. Rabbit hearts isolated by the Langendorff method were perfused with oxygenized ringer solution at 38.2° C. The isometric contractions, electrocardiogram and coronary flow were recorded using a "Battaglia-Rangoni" polygraph. By removing the oxygen from the perfusion fluid, metabolic damage was induced in the cardia muscle, up to an 80% reduction in the cardiac contractile force.
(§2) Under these conditions of prolonged anoxia the aerobic glycolysis of the myocardium is slowed down, accompanied by the storage of acid catabolites due to both the accumulation of pyruvic acid and its conversion to lactic acid which cannot be utilized because of the depression of pyridine enzymes, such as LDH (lactodehydrogenase). This has repercussions on the anaerobic glycolysis affecting an ever increasing number of enzymes, accompanied by a progressive and increasingly critical exhaustion of the myocardium. Thus a whole series of cardiac muscle fatigue levels occurs which can be observed by the behavior of the examined parameters, namely the contractile force, coronary flow, heart rate and cardiac rhythm. As soon as the contractile force was reduced by 80%, the perfusion fluid was once again oxygenized either without adding other compounds (controls) or with the addition of the compounds under examination.

Test [4] deals with isolated rabbit hearts. Nature of the test: cardiokinetic effect on isolated heart (Langendorff): contractile force after anoxia, positive inotropic effect. Particulars: 10 minutes from interruption of anoxic period. How it is done:
as §1, §2
Table 3 below gives the percentage values of the contractile force of the heart, showing a positive inotropic effect, calculated after 10 minutes from the interruption of the anoxic period (myocardial restoration).

Where [5] appears, read: session 6 (every 15 minutes), * p < 0.05.
Setting [6] is: read-out: Mean percent variation versus controls: excitability (-%).
Where [7] appears, read: read-out: Mean percent variation versus controls: frequency max (-%).
Where [8] appears, read: read-out: Mean percent variation versus controls: refractory period (+%).
The mark [9] stands for this setting: read-out: Mean percent variation versus controls: rheobase (+%).

Each structure is given as a SMILES string. Where two headings read alike, the source gives them in different places.

For `C=C[C@H]1C[N@@]2CC[C@H]1C[C@@H]2[C@@H](O)c1ccnc2ccc(OC)cc12` [Quinidine, reference compound], the inhibition at 0.1 µg/mL in test [1] (1·10^-4 g/lt, decrease, read-out: Mean percent variation versus controls: excitability (-%)) is 189%; in test [1] (1·10^-4 g/lt, decrease, read-out: Mean percent variation versus controls: frequency max (-%)), 71.2%. The activation at 0.1 µg/mL in test [1] (1·10^-4 g/lt, increase, read-out: Mean percent variation versus controls: refractory period (+%)) came out at 57.4%; in test [1] (1·10^-4 g/lt, increase, read-out: Mean percent variation versus controls: rheobase (+%)), 54.1%. Also, the inhibition at 0.01 µg/mL in test [1] (1·10^-5 g/lt, decrease, read-out: Mean percent variation versus controls: excitability (-%)) came to 23.4%; in test [1] (1·10^-5 g/lt, decrease, read-out: Mean percent variation versus controls: frequency max (-%)), 24.1%. In addition, the activation at 0.01 µg/mL stood at 20.4% in test [1] (1·10^-5 g/lt, increase, read-out: Mean percent variation versus controls: refractory period (+%)) and 25.1% in test [1] (1·10^-5 g/lt, increase, read-out: Mean percent variation versus controls: rheobase (+%)). The inhibition at 0.001 µg/mL in test [1] (1·10^-6 g/lt, decrease, read-out: Mean percent variation versus controls: excitability (-%)) was 16.9%; in test [1] (1·10^-6 g/lt, decrease, read-out: Mean percent variation versus controls: frequency max (-%)) it was 11.7%. The activation at 0.001 µg/mL in test [1] (1·10^-6 g/lt, increase, read-out: Mean percent variation versus controls: refractory period (+%)) was determined as 3.12%; in test [1] (1·10^-6 g/lt, increase, read-out: Mean percent variation versus controls: rheobase (+%)), 7.14%.

As to `CC(N)Cc1ccccc1` (racemic) [d,l-amphetamine, reference compound], the responders at 0.25 mg/kg was 0% in test [2] (session 1 (every 15 minutes)); 12.5% in test [2] (session 2 (every 15 minutes)); 25% in test [2] (session 3 (every 15 minutes)); 25% in test [2] (session 4 (every 15 minutes)); 25% in test [2] (session 5 (every 15 minutes)); 25% in test [2] (session 6 (every 15 minutes)). Moreover, the responders at 0.5 mg/kg in test [2] (session 1 (every 15 minutes)) worked out at 0%; in test [2] (session 2 (every 15 minutes)), 5.88%; in test [2] (session 3 (every 15 minutes)) it was 11.8%; in test [2] (session 4 (every 15 minutes)) it was 23.5%; in test [2] (session 5 (every 15 minutes)), 29.4%; in test [2] (session 6 (every 15 minutes)), 35.3%. For the same compound, the responders at 1 mg/kg in test [2] (session 1 (every 15 minutes)) came out at 0%; in test [2] (session 2 (every 15 minutes)), 8.33%; in test [2] (session 3 (every 15 minutes)), 25%; in test [2] (session 4 (every 15 minutes)), 33.3%; in test [2] (session 5 (every 15 minutes), * p < 0.05), 58.3%; in test [2] (setting [5]), 58.3%.

Turning to `CCCCCCCCCCCCCCCC(=O)OC(CC(=O)[O-])C[N+](C)(C)C` (racemic) [palmitoyl-d,l-carnitine], the “Coronary flow, Mean ± S.E.” value in test [3] (1·10^-5 g/lt) is 84.68 ± 7.20%; in test [3] (1·10^-6 g/lt) it was 78.15 ± 7.21%; in test [3] (5·10^-6 g/lt) it was 72.20 ± 12.73%. The inhibition at 0.001 µg/mL in test [1] (setting [6]) amounted to 0%; in test [1] (setting [7]) it was 16.9%. For the same compound, the inhibition at 0.01 µg/mL in test [1] (setting [6]) is 3.01%; in test [1] (setting [7]), 8.14%. In addition, the inhibition at 0.1 µg/mL in test [1] (setting [6]) was 32.8%; in test [1] (setting [7]), 80.5%. Moreover, the activation at 0.001 µg/mL came to 0% in test [1] (setting [8]) and 22.2% in test [1] (setting [9]). Moreover, the activation at 0.01 µg/mL in test [1] (setting [8]) turned out to be 13.7%; in test [1] (setting [9]), 7.33%. In addition, the figures for the activation at 0.1 µg/mL in test [1] (setting [8]) and in test [1] (setting [9]) were 34.1% and 6.91%, respectively. For the same compound, the “Contractile force, Mean ± S.E.” value is reported as 38.2 ± 4.75% in test [4] (1·10^-5 g/lt), 27.8 ± 4.71% in test [4] (1·10^-6 g/lt) and 33.4 ± 3.08% in test [4] (5·10^-6 g/lt). The responders at 300 mg/kg turned out to be 0% in test [2] (session 1 (every 15 minutes)); 0% in test [2] (session 2 (every 15 minutes)); 0% in test [2] (session 3 (every 15 minutes)); 0% in test [2] (session 4 (every 15 minutes)); 10% in test [2] (session 5 (every 15 minutes)); 10% in test [2] (session 6 (every 15 minutes)). The responders at 400 mg/kg in test [2] (session 1 (every 15 minutes)) came out at 0%; in test [2] (session 2 (every 15 minutes)), 0%; in test [2] (session 3 (every 15 minutes)), 0%; in test [2] (session 4 (every 15 minutes)) it was 10%; in test [2] (session 5 (every 15 minutes)), 20%; in test [2] (setting [5]) it was 20%. Further, the responders at 600 mg/kg in test [2] (session 1 (every 15 minutes)) stood at 0%; in test [2] (session 2 (every 15 minutes)), 0%; in test [2] (session 3 (every 15 minutes)), 0%; in test [2] (session 4 (every 15 minutes)), 20%; in test [2] (session 5 (every 15 minutes)), 20%; in test [2] (setting [5]), 30%.

(Values after patent US4194006A, “Therapeutic application of acetyl-d,l-carnitine and other acyl derivatives of d,l-carnitine” (priority 1977, dated 1980).)
